From patent publication US20180214582A1, “METHOD FOR DIAGNOSING CARCINOMAS USING IRGD AND MAGENTIC RESONANCE TOMOGRAPHY (MRT)” (Albrecht Piiper, priority 2015, published 2018)

What was measured:
HCCs in TGFα/c-myc mice [1] = experiment: Gd-DTPA-enhanced MRI with and without peptide in TGFα/c-myc mice with HCC; type: in vivo; conditions: for contrast of HCC tumors in the liver in Gd-DTPA-enhanced MRI: T1-weighted 3T MRI
Text: (§1) Male TGFα/c-myc bitransgenic mice were created by crossing homozygous metallothionein/TGFα and albumin/c-myc single-transgenic mice in a CD13B6CBA background as described (Murakami et al., 1993; Haupenthal et al., 2012). After weaning, the animals were given ZnCl2 by way of the drinking water to induce tumors via the expression of TGFα. Starting at an age of 20 weeks, the TGFα/c-myc animals underwent a Primovist-enhanced MRI scan in a 3T MRI Scanner (Siemens 113 Magnetom Trio, Siemens Medical Solutions) as described (Haupenthal et al., 2012; Watcharin et al., 2015; Korkusuz et al., 2013).
So as to determine the effect of iRGD on the Gd-DTPA-enhanced MRI in the HCC, TGFα/c mice with HCC according to a prior Gd-EOB-DTPA (Primovist)-enhanced MRI one week earlier, or nude mice with HepG2 or Huh7 tumors, were included in the experiments. The mice were anesthetized by way of intraperitoneal injection of ketamine (70 mg/kg body weight) and xylazine (10 mg/kg body weight), followed by a basal T1-weighted MRI. Directly thereafter, a Gd-DTPA-enhanced MRI was conducted (Haupenthal et al., 2012). Twelve to 24 hours later, either iRGD or the RGD control peptide was injected ([…] each via the tail vein), followed by a basal and a Gd-DTPA-enhanced MRI (Watcharin et al., 2015). For the quantitative analysis of the MRI data, the signal intensities in user defined “regions of interest” (ROI) were used (Korkusuz et al., 2013). ROIs were placed in the liver and in the tumor tissue. The changes in the signal intensities were ascertained by subtraction of the pre-contrast value from those after the administration of Gd-DTPA. The changes in the signal intensities of the tumors and the livers due to iRGD or the RGD control peptide were indicated as multiples of the values of the Gd-DTPA MRI with prior injection of PBS.
It was examined whether the tumor-permeabilizing effect of iRGD can already be detected by a Gd-DTPA-enhancing MRI, a widely used clinical procedure, in TGFα/c-myc mice with endogenous HCC. For this purpose, TGFα/c-myc mice with HCCs discovered one week prior according to Gd-EOB-DTPA-enhanced MRI were used. […] 12 to 24 hours later, the mice were administered iRGD or the RGD control peptide, followed by another Gd-DTPA-enhanced MRI.
TGFα/c-myc mice in which HCCs had been detected one week prior by way of Gd-EOB-DTPA-enhanced MRI were anesthetized, followed by a basal T1-weighted MRI, and a Gd-DTPA-enhanced MRI directly thereafter. 12 to 24 hours later, either iRGD or RGD control peptide (con. peptide) was injected (100 μL each via the tail vein, 4 mmol/kg) into the same animals, followed by a basal MRI and a Gd-DTPA-enhanced MRI. A. Gd-DTPA-enhanced MRI of TGFα/c-myc mice with HCC (left), followed by an injection of iRGD and another Gd-DTPA-enhanced MRI 12 hours thereafter. Arrows mark the tumor.
B. quantitative analysis of the MRI data. Values are mean values±SD; n=12.

HCCs in TGFα/c-myc mice [2] = experiment: Doxorubicin tissue concentration after i.v. peptide in TGFα/c-myc mice with HCC; type: in vivo; conditions: peptide 4 mmol/kg i.v.; for doxorubicin level in the HCCs: doxorubicin 20 mg/kg iv 10 minutes later, tissues 30 minutes later; for levels of doxorubicin in the organs: doxorubicin 20 mg/kg iv, FIG. 2A
Text: as §1
Furthermore, the effect of iRGD on the tissue concentrations of intravenously applied doxorubicin, a tumor therapeutic agent that can be detected due to the inherent fluorescence in tissue sections and tissue extracts, in the TGFα/c-myc and in the HepG2 xenotransplant HCC mouse model was analyzed. […] The control peptide had no effects on the doxorubicin level in any of the tissues.
TGFα/c-myc mice with radiologically verified HCCs (A) or nude mice with subcutaneous HepG2 xenotransplants (B) were intravenously injected with 4 mmol/kg iRGD or control peptide (each in PBS), or treated with PBS alone, followed by a doxorubicin (20 mg/kg iv) injection 10 minutes later. The tissues were collected another 30 minutes later and stored, and the doxorubicin concentration was determined. The values are mean values±SD; n=5 to 6. Asterisks indicate a significant difference (**P<0.01; ***P<0.001).

HepG2 xenotransplants [3] = experiment: Doxorubicin tissue concentration after i.v. peptide in nude mice with HepG2 xenotransplants; type: in vivo; conditions: nude mice with subcutaneous HepG2 xenotransplants; peptide 4 mmol/kg i.v., doxorubicin 20 mg/kg iv
Experimental: HepG2- and Huh7 cells (ATCC and RIKEN BioResource Center) were cultivated in DMEM with 10% FBS and penicillin/streptomycin (Life Technologies). 5 million cells in 100 μL PBS were injected into the sides of NMRI Foxn1 nude mice (Harlan Laboratories B.V.). Four weeks later the mice were assigned to the test groups. Furthermore, the effect of iRGD on the tissue concentrations of intravenously applied doxorubicin, a tumor therapeutic agent that can be detected due to the inherent fluorescence in tissue sections and tissue extracts, in the TGFα/c-myc and in the HepG2 xenotransplant HCC mouse model was analyzed. […] The control peptide had no effects on the doxorubicin level in any of the tissues. TGFα/c-myc mice with radiologically verified HCCs (A) or nude mice with subcutaneous HepG2 xenotransplants (B) were intravenously injected with 4 mmol/kg iRGD or control peptide (each in PBS), or treated with PBS alone, followed by a doxorubicin (20 mg/kg iv) injection 10 minutes later. The tissues were collected another 30 minutes later and stored, and the doxorubicin concentration was determined. The values are mean values±SD; n=5 to 6. Asterisks indicate a significant difference (**P<0.01; ***P<0.001).

HCCs in TGFα/c-myc mice [4] = experiment: Evans blue accumulation after i.v. peptide in TGFα/c-myc mice with endogenous HCC; type: in vivo; conditions: peptide 4 mmol/kg i.v., then Evans blue; for concentration of Evans blue in normal tissue (liver, kidney, spleen and lung): photometry; for Evans blue quantity in the tumors compared to HCCs of mice injected with PBS or control peptide: tissues 30 minutes later, photometric quantification
Text: as §1
So as to examine whether intravenously applied iRGD increases the permeability of the HCC, the effect of intravenously applied iRGD on the levels of co-injected Evans blue, an albumin-binding dye, in TGFα/c-myc mice with endogeneous HCCs according to a Gd-EOB-DTPA-enhanced MRI were analyzed. For this purpose, the mice with HCC were intravenously injected with iRGD, an RGD control peptide without a CendR motif, or PBS, followed by the injection of Evans blue […]. Another 30 minutes later, the animals were terminally perfused.
(§2) TGFα/c-myc mice with MRI-verified HCCs (A) or mice with subcutaneous HepG2 (B) or Huh7 xenotransplants (C) were intravenously injected with 4 mmol/kg iRGD or control peptide (each in PBS), or PBS was injected alone, followed by an injection of EB 5 minutes later. The tissues were harvested after another 30 minutes. The EB accumulation in the tissues was determined by way of photometry. The data involves mean values±SD; n=4 to 5. Asterisks indicate a significant difference (* P<0.05; * P<0.01; *** P<0.001). n.s., not significant.

4T1 tumor = experiment: Gd-DTPA-enhanced MRI with and without peptide in syngeneic 4T1 breast cancer mouse model; type: in vivo; conditions: BALB/c mice, 4T1 cells in mammary gland no. 4; peptide 4 mmol/kg; p<0.05
Experimental: 4T1 cells (ATCC) were cultivated in RPMI 1640 medium with 10% FBS and penicillin/streptomycin (Life Technologies). BALB/c mice were injected with 2.5×10^4 4T1 cells into mammary gland no. 4 of the mouse, and the tumors were allowed to grow for two weeks.
Furthermore, it was examined to what extent iRGD also influences the MRI signal of the tumor in the Gd-DTPA-enhanced MRI in the syngeneic 4T1 breast cancer mouse model.
Effect of iRGD and the RGD control peptide on the increase in the signal intensity in the Gd-DTPA-enhanced MRI in the liver and in the 4T1 tumors in BALB/c mice. BALB/c mice were injected with 2.5×10^4 4T1 cells into mammary gland no. 4 of the mouse. Two weeks later, the mice were anesthetized, followed by a basal T1-weighted MRI, and a Gd-DTPA-enhanced MRI directly thereafter. 12 to 24 hours later, either iRGD or RGD control peptide (con. peptide) was injected (100 μL each via the tail vein, 4 mmol/kg) into the same animals, followed by a basal MRI and a Gd-DTPA-enhanced MRI. The data was quantitatively analyzed. Values are mean values±SD; n=6.

Huh7 xenotransplants [5] = experiment: Gd-DTPA-enhanced MRI with and without peptide in nude mice with Huh7 xenotransplants; type: in vivo; conditions: p=0.0081
Experimental: (§3) HepG2- and Huh7 cells (ATCC and RIKEN BioResource Center) were cultivated in DMEM with 10% FBS and penicillin/streptomycin (Life Technologies). 5 million cells in 100 μL PBS were injected into the sides of NMRI Foxn1 nude mice (Harlan Laboratories B.V.). Four weeks later the mice were assigned to the test groups.
(§4) So as to determine the effect of iRGD on the Gd-DTPA-enhanced MRI in the HCC, TGFα/c mice with HCC according to a prior Gd-EOB-DTPA (Primovist)-enhanced MRI one week earlier, or nude mice with HepG2 or Huh7 tumors, were included in the experiments. The mice were anesthetized by way of intraperitoneal injection of ketamine (70 mg/kg body weight) and xylazine (10 mg/kg body weight), followed by a basal T1-weighted MRI. Directly thereafter, a Gd-DTPA-enhanced MRI was conducted (Haupenthal et al., 2012). Twelve to 24 hours later, either iRGD or the RGD control peptide was injected ([…] each via the tail vein), followed by a basal and a Gd-DTPA-enhanced MRI (Watcharin et al., 2015). For the quantitative analysis of the MRI data, the signal intensities in user defined “regions of interest” (ROI) were used (Korkusuz et al., 2013). ROIs were placed in the liver and in the tumor tissue. The changes in the signal intensities were ascertained by subtraction of the pre-contrast value from those after the administration of Gd-DTPA. […]

HepG2 xenotransplants [6] = experiment: Evans blue accumulation after i.v. peptide in nude mice with HepG2 xenotransplants; type: in vivo, NMRI Foxn1 nude mice; conditions: subcutaneous HepG2 xenotransplants, peptide 4 mmol/kg i.v., p≤0.002
Experimental: as §3
(§5) So as to examine whether the tumor-permeabilizing effect of iRGD also occurs in HCC nude mice tumor models, the effect of intravenously applied iRGD on the level of co-applied Evans blue in nude mice which had HepG2 or Huh7 xenotransplants was analyzed. iRGD effectuated an increase in the concentrations of co-applied Evans blue in HepG2-xenotransplanted and Huh-7-xenotransplanted tumors by a factor of 3.4 (p≤0.002) (in HepG2 tumors) and 2.6-fold in Huh7 tumors (p<0.001) compared to the corresponding tumors of nude mice injected with PBS and the control peptide (FIGS. 1B and C).
as §2, with “Asterisks indicate a significant difference (* P<0.05; * P<0.01; *** P<0.001). n.s., not significant.” left out

HepG2 tumors = experiment: Gd-DTPA-enhanced MRI with and without peptide in nude mice with HepG2 xenotransplants; type: in vivo
Experimental: as §3, §4

Huh7 xenotransplants [7] = experiment: Evans blue accumulation after i.v. peptide in nude mice with Huh7 xenotransplants; type: in vivo, NMRI Foxn1 nude mice; conditions: subcutaneous Huh7 xenotransplants, peptide 4 mmol/kg i.v., p<0.001
Experimental: as §3, §5
as §2, with “Asterisks indicate a significant difference (* P<0.05; * P<0.01; *** P<0.001). n.s., not significant.” left out

Molecule	contrast of HCC tumors in the liver in Gd-DTPA-enhanced MRI (HCCs in TGFα/c-myc mice [1])	doxorubicin level in the HCCs (HCCs in TGFα/c-myc mice [2])	levels of doxorubicin in the organs (HCCs in TGFα/c-myc mice [2])	doxorubicin level in the HCCs (HepG2 xenotransplants) (HepG2 xenotransplants [3])	signal intensities in normal organs in Gd-DTPA-enhanced MRI (HCCs in TGFα/c-myc mice [1])	concentration of Evans blue in normal tissue (liver, kidney, spleen and lung) (HCCs in TGFα/c-myc mice [4])	Evans blue quantity in the tumors compared to HCCs of mice injected with PBS or control peptide (HCCs in TGFα/c-myc mice [4])	MRI signal in the Gd-DTPA-enhanced MRI in the 4T1 tumor (4T1 tumor)	rise in signal intensity of the tumors in Gd-DTPA-enhanced MRI (Huh7) (Huh7 xenotransplants [5])	increase of signal intensities in the tumors in Gd-DTPA-enhanced MRI vs RGD control peptide or PBS (HCCs in TGFα/c-myc mice [1]; peptide 4 mmol/kg via tail vein, quantitative densitometric analysis, n=12)	increase in concentration of co-applied Evans blue in HepG2 tumors vs PBS and control peptide (HepG2 xenotransplants [6])	signal intensity of the tumors in Gd-DTPA-enhanced MRI (HepG2) (HepG2 tumors; p=0.0311)	rise in signal intensity of the tumors in Gd-DTPA-enhanced MRI, other HCC mouse models (HepG2) (HepG2 tumors; stated for 'the other HCC mouse models')	increase in concentration of co-applied Evans blue in Huh7 tumors vs PBS and control peptide (Huh7 xenotransplants [7])
O=C([O-])CN(CCN(CC(=O)[O-])CC(=O)O)CCN(CC(=O)[O-])CC(=O)O.[Gd+3] [Gd-DTPA, reference compound]	highly negative contrasts	–	–	–	–	–	–	–	–	–	–	–	–	–
CRGDDGPKC [RGD control peptide, RGD control peptide without a CendR motif; acquired from GenScript, reference compound]	negatively contrasted	no effects	no effects	no effects	no effects	had no impact	had no effect	–	–	–	–	–	–	–
CRGDKGPDC [iRGD]	contrasting positively	increase in the doxorubicin level	no effects	increase in the doxorubicin level	no effects	had no impact	three-fold increase	significant increase in the MRI signal	1.5 fold	2 fold	3.4 fold	rise in the signal intensity	≤ 2 fold	2.6 fold
